Measurements reported in US8362005B2, “Monocyclic amide CGRP receptor antagonists” (Merk. Sharp & Dohme Corp., priority 2008, dated 2013).
Ends that are not written are not given here.

How the values were obtained:
[1] = target: T1, recombinant human CL receptor/RAMP1 (Homo sapiens, UniProt O60894+Q16602); assay: Recombinant receptor binding assay (125I-hCGRP, membranes of HEK 293 cells); conditions: 10 pM 125I-hCGRP
T1 construct: expressed in transfected cells; membranes
Protocol: RECOMBINANT RECEPTOR: Human CL receptor (Genbank accession number L76380) was subcloned into the expression vector pIREShyg2 (BD Biosciences Clontech) as a 5′NheI and 3′ PmeI fragment. Human RAMP 1 (Genbank accession number AJ001014) was subcloned into the expression vector pIRESpuro2 (BD Biosciences Clontech) as a 5′NheI and 3′NotI fragment. HEK 293 cells (human embryonic kidney cells; ATCC #CRL-1573) were cultured in DMEM with 4.5 g/L glucose, 1 mM sodium pyruvate and 2 mM glutamine supplemented with 10% fetal bovine serum (FBS), 100 units/mL penicillin and 100 μg/mL streptomycin, and maintained at 37° C. and 95% humidity. Cells were subcultured by treatment with 0.25% trypsin with 0.1% EDTA in HBSS. Stable cell line generation was accomplished by co-transfecting 10 μg of DNA with 30 μg Lipofectamine 2000 (Invitrogen) in 75 cm^2 flasks. CL receptor and RAMP1 expression constructs were co-transfected in equal amounts. […]
[formula] Where Y is observed CPM bound, Ymax is total bound counts, Ymin is non specific bound counts, (Ymax−Ymin) is specific bound counts, % Imax is the maximum percent inhibition, % I min is the minimum percent inhibition, radiolabel is the probe, and the Kd is the apparent dissociation constant for the radioligand for the receptor as determined by Hot saturation experiments.

[2] = tested on: acute attacks of migraine; conditions: clinical trials; cited from earlier work
[3] = tested on: headache induced by CGRP infusion; conditions: control group, clinical; cited from earlier work
[4] = tested on: facial blood flow; conditions: marmoset, electrical stimulation of the trigeminal ganglion; cited from earlier work
[5] = tested on: middle meningeal artery; conditions: rats, electrical stimulation of the dura mater, prior administration; cited from earlier work
[6] = tested on: facial blood flow; conditions: rat, trigeminal ganglion stimulation; cited from earlier work

T1 sequence (Q16602 23-461): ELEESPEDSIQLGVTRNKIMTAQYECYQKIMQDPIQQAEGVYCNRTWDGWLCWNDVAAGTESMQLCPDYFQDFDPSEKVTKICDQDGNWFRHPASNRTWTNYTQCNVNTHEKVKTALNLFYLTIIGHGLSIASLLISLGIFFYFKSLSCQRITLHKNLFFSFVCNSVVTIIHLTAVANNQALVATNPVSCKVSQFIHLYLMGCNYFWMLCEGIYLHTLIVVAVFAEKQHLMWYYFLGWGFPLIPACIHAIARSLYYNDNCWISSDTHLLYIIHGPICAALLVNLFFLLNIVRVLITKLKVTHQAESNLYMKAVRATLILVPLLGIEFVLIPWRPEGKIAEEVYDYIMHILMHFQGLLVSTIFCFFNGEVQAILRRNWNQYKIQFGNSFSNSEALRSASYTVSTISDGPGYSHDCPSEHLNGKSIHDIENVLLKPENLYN
T1 sequence (O60894 27-148): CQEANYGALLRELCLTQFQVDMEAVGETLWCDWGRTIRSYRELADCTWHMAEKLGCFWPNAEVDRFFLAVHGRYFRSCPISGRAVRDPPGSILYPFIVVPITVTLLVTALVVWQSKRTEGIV

Q: For `O=C(Cn1c(-c2ccccc2)c(Cl)nc(N2CCCC2)c1=O)Nc1ccc2c(c1)CC1(C2)C(=O)Nc2ncccc21` (stereo not drawn) [Example 5, 2-(5-Chloro-2-oxo-6-phenyl-3-pyrrolidin-1-ylpyrazin-1(2H)-yl)-N-(2′,-oxo-1,1′,2′,3-tetrahydrospiro[indene-2,3′-pyrrolo[2,3-b]pyridin]-5-yl)acetamide], which Ki [1] is on record?
A: 130 nM

Q: For `NCCCC[C@H](NC(=O)[C@@H](Cc1cc(Br)c(O)c(Br)c1)NC(=O)N1CCC(N2Cc3ccccc3NC2=O)CC1)C(=O)N1CCN(c2ccncc2)CC1` [BIBN4096BS], which “efficacy in treating acute attacks of migraine” value [2] is on record?
A: effective in treating acute attacks of migraine

Q: What about the “prevention of headache induced by CGRP infusion” value [3] of the same compound?
A: able to prevent headache induced by CGRP infusion

Q: What about the “block of the increase in facial blood flow” value [4] of the same compound?
A: could be blocked

Q: Which “block of the increase in diameter of the middle meningeal artery” value [5] does the source give for “CGRP(8-37): a peptide CGRP antagonist; fragment of CGRP that lacks seven N-terminal amino acid residues (VTHRLAGLLSRSGGVVKNNFVPTNVGSKAF; ends and bridges not checked; UniProt P06881 90-119, looked up, fragment)” here?
A: blocked

Q: What about the “inhibition of increased facial blood flow” value [6] of the same compound?
A: inhibited
